One block for each compound: values may come before it.
Assays:
InsP3Kinase-A [1] = biological target: T1, InsP3Kinase-A (Homo sapiens, UniProt P23677); assay: coupled PK/LDH assay with Lineweaver-Burk; thermal shift +[…] °C on wt; assay type: biochemical; design: gene ITPKA; full-length, tag-less
InsP3Kinase-A [2] = biological target: T2, InsP3Kinase-A (Homo sapiens, UniProt P23677, K264Q); assay: activity of purified mutant with and without BIP-[…] to […]); assay type: biochemical
T2 construct: gene ITPKA; full-length
T2 sequence (P23677 whole entry K264Q): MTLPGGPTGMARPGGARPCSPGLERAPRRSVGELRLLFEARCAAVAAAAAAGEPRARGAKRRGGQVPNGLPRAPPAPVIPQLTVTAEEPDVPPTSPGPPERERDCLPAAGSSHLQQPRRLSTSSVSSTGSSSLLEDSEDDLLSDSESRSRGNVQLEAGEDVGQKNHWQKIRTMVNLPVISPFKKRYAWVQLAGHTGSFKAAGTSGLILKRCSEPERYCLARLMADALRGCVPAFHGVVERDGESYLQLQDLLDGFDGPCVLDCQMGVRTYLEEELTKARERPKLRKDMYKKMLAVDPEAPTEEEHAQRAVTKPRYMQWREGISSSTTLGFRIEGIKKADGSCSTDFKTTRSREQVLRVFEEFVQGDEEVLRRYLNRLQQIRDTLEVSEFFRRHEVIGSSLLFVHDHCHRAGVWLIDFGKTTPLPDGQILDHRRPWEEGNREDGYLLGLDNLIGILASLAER

InsP3Kinase-A [3] = biological target: T1, InsP3Kinase-A; assay: biochemical; design: gene ITPKA; full-length GST-InsP3Kinase-A; conditions: ADP-Glo, 5 uM compound, normalized to positive control
Method: For the inhibitor screening, the compounds were diluted in dimethylsulfoxide (DMSO, Sigma), and a final compound concentration of 5 µM was applied to each well. Each measurement was performed in triplicates. As controls, a positive control (enzyme solution with InsP3Kinase and without compounds, but with DMSO), a negative control (enzyme buffer without InsP3Kinase), and an inhibitor control (quercetin and BIP-4) were applied. In each well, there was a final buffer concentration of 20 mM HEPES pH 7.5, 5 mM MgCl2, 30 mM KCl, 1 mM DTT, 0.5 mM ATP, and an enzyme concentration between 20 nM and 55 nM was applied. […] Then, 10 µl of ADP-Glo reagent was added (depleting remaining ATP and stopping InsP3Kinase enzymatic reaction) and incubated for 20 min at room temperature (RT). […] For luminescent measurement, a TECAN infinite 200 plate reader was used with an integration time of 1000 ms at a temperature of 30°C. For this screen, all measurements were performed in triplicates, three-times using the ADP Glo assay.

InsP3Kinase-A [4] = biological target: T1, InsP3Kinase-A; assay: biochemical; design: gene ITPKA; full-length GST-InsP3Kinase-A; conditions: ADP-Glo, 5 uM compound, normalized to positive control; remark: listed apart in the source
Method: For the inhibitor screening, the compounds were diluted in dimethylsulfoxide (DMSO, Sigma), and a final compound concentration of 5 µM was applied to each well. Each measurement was performed in triplicates. […] In each well, there was a final buffer concentration of 20 mM HEPES pH 7.5, 5 mM MgCl2, 30 mM KCl, 1 mM DTT, 0.5 mM ATP, and an enzyme concentration between 20 nM and 55 nM was applied. […] Then, 10 µl of ADP-Glo reagent was added (depleting remaining ATP and stopping InsP3Kinase enzymatic reaction) and incubated for 20 min at room temperature (RT). Next, 10 µl kinase detection reagent (converting remaining ADP to ATP and containing luciferase, which uses ATP as substrate) was added, and incubation was continued for 15 min at RT. For luminescent measurement, a TECAN infinite 200 plate reader was used with an integration time of 1000 ms at a temperature of 30°C. For this screen, all measurements were performed in triplicates, three-times using the ADP Glo assay.

T1 sequence (P23677 whole entry): as the sequence (P23677 whole entry K264Q) above, with Q264K counted along it

Compound: Cc1nn(-c2ccc([N+](=O)[O-])cc2)c(C)c1N1C(=O)c2cc([N+](=O)[O-])cc3cc([N+](=O)[O-])cc(c23)C1=O [BIP-4, 2-[3,5-dimethyl-1-(4-nitrophenyl)-1H-pyrazol-4-yl]-5,8-dinitro-1H-benzo[de]isoquinoline-1,3(2H)-dione]
- Ki (InsP3Kinase-A [1]): 437 nM
- Enzyme activity + BIP4 in % (InsP3Kinase-A [2]): 18.797 % enzyme activity with BIP-4

Compound: Cc1ccc(N2C(=O)c3cc([N+](=O)[O-])cc4cc([N+](=O)[O-])cc(c34)C2=O)c(C)c1 [compound 19, 19]
- inhibition at 5 µM (InsP3Kinase-A [3]): 36.2%

Compound: O=C1c2cc([N+](=O)[O-])cc3cc([N+](=O)[O-])cc(c23)C(=O)N1c1ccccc1Cl [compound 28, 28]
- inhibition at 5 µM (InsP3Kinase-A [3]): 19.7%

Compound: CCN(CC)S(=O)(=O)c1ccc(N2C(=O)c3cc([N+](=O)[O-])cc4cc([N+](=O)[O-])cc(c34)C2=O)cc1 [compound 33, 33]
- inhibition at 5 µM (InsP3Kinase-A [3]): 41.6%

Compound: O=C1c2cc([N+](=O)[O-])cc3cc([N+](=O)[O-])cc(c23)C(=O)N1c1ccc(Br)cn1 [compound 78, 78]
- inhibition at 5 µM (InsP3Kinase-A [4]): 1.6%

Now from value to compound:

- inhibition at 5 µM (InsP3Kinase-A [3]): 31.4%
Compound: CCOc1ccc(N2C(=O)c3cc([N+](=O)[O-])cc4cc([N+](=O)[O-])cc(c34)C2=O)cc1 [compound 27, 27]

- inhibition at 5 µM (InsP3Kinase-A [3]): 33.4%
Compound: CNS(=O)(=O)c1ccc(N2C(=O)c3cc([N+](=O)[O-])cc4cc([N+](=O)[O-])cc(c34)C2=O)cc1 [compound 31, 31]

Source: PMC8292763, “Mechanism of BIP-4 mediated inhibition of InsP3Kinase-A” (Bioscience Reports, 2021)
